# Results published in patent publication US20260262643A1, “HERBICIDAL BENZOXAZINES” (FMC CORPORATION, priority 2022, published 2026).
# Assays:
# barnyardgrass [1] = experiment: Test C preemergence; type: in vivo, Echinochloa crusgalli; settings: preemergence, 0 to 100 scale (0 no effect, 100 complete control)
# In short: (§1)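 Visual injury score, 0–100 (100 = complete control), taken 10 days after treatment relative to untreated controls. Pre: directed spray onto soil over sown seeds. Post: foliar spray at one- to two-leaf stage, 2–10 cm. Solvent/surfactant formulation; loam–sand soil; greenhouse.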
# blackgrass [2] = experiment: Test C preemergence; type: in vivo, Alopecurus myosuroides; settings: preemergence, 0 to 100 scale (0 no effect, 100 complete control)
# In short: as §1
# corn [3] = experiment: Test C preemergence; type: in vivo, Zea mays; settings: preemergence, 0 to 100 scale (0 no effect, 100 complete control)
# In short: as §1
# green foxtail [4] = experiment: Test C preemergence; type: in vivo, Setaria viridis; settings: preemergence, 0 to 100 scale (0 no effect, 100 complete control)
# In short: as §1
# kochia [5] = experiment: Test C preemergence; type: in vivo, Bassia scoparia; settings: preemergence, 0 to 100 scale (0 no effect, 100 complete control)
# In short: as §1
# oat, wild [6] = experiment: Test C preemergence; type: in vivo, Avena fatua; settings: preemergence, 0 to 100 scale (0 no effect, 100 complete control)
# In short: as §1
# pigweed, palmer [7] = experiment: Test C preemergence; type: in vivo, Amaranthus palmeri; settings: preemergence, 0 to 100 scale (0 no effect, 100 complete control)
# In short: as §1
# ragweed [8] = experiment: Test C preemergence; type: in vivo, Ambrosia artemisiifolia; settings: preemergence, 0 to 100 scale (0 no effect, 100 complete control)
# In short: as §1
# ryegrass, Italian [9] = experiment: Test C preemergence; type: in vivo, Lolium multiflorum; settings: preemergence, 0 to 100 scale (0 no effect, 100 complete control)
# In short: as §1
# soybean [10] = experiment: Test C preemergence; type: in vivo, Glycine max; settings: preemergence, 0 to 100 scale (0 no effect, 100 complete control)
# In short: as §1
# wheat [11] = experiment: Test C preemergence; type: in vivo, Triticum aestivum; settings: preemergence, 0 to 100 scale (0 no effect, 100 complete control)
# In short: as §1
# barnyardgrass [12] = experiment: Test C postemergence; type: in vivo, Echinochloa crusgalli; settings: postemergence, 10 days
# In short: as §1
# blackgrass [13] = experiment: Test C postemergence; type: in vivo, Alopecurus myosuroides; settings: postemergence, 10 days
# In short: as §1
# corn [14] = experiment: Test C postemergence; type: in vivo, Zea mays; settings: postemergence, 10 days
# In short: as §1
# green foxtail [15] = experiment: Test C postemergence; type: in vivo, Setaria viridis; settings: postemergence, 10 days
# In short: as §1
# kochia [16] = experiment: Test C postemergence; type: in vivo, Bassia scoparia; settings: postemergence, 10 days
# In short: as §1
# oat, wild [17] = experiment: Test C postemergence; type: in vivo, Avena fatua; settings: postemergence, 10 days
# In short: as §1
# pigweed, palmer [18] = experiment: Test C postemergence; type: in vivo, Amaranthus palmeri; settings: postemergence, 10 days
# In short: as §1
# ragweed [19] = experiment: Test C postemergence; type: in vivo, Ambrosia artemisiifolia; settings: postemergence, 10 days
# In short: as §1
# ryegrass, Italian [20] = experiment: Test C postemergence; type: in vivo, Lolium multiflorum; settings: postemergence, 10 days
# In short: as §1
# soybean [21] = experiment: Test C postemergence; type: in vivo, Glycine max; settings: postemergence, 10 days
# In short: as §1
# wheat [22] = experiment: Test C postemergence; type: in vivo, Triticum aestivum; settings: postemergence, 10 days
# In short: as §1
# galium = experiment: Test C postemergence; type: in vivo, Galium aparine; settings: postemergence, 10 days
# In short: as §1
# horseweed = experiment: Test C postemergence; type: in vivo, Erigeron canadensis; settings: postemergence, 10 days
# In short: as §1
# barnyardgrass [23] = experiment: Test D flooded paddy test; type: in vivo, Echinochloa crus-galli; settings: 250 g ai/ha, applied to paddy water, visual rating after 13 to 14 days, scale 0 to 100 (0 no effect, 100 complete control)
# In short: (§2)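 Plants at the 2-leaf stage were grown in pots flooded to 3 cm, and compound was applied directly into the paddy water, with depth kept throughout. After 13–14 days in a greenhouse, injury was rated visually against untreated controls on a 0–100 scale (100 = complete control); a dash means not tested.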
# ducksalad = experiment: Test D flooded paddy test; type: in vivo, Heteranthera limosa; settings: 250 g ai/ha, applied to paddy water, visual rating after 13 to 14 days, scale 0 to 100 (0 no effect, 100 complete control)
# In short: as §2
# rice = experiment: Test D flooded paddy test; type: in vivo, Oryza sativa; settings: 250 g ai/ha, applied to paddy water, visual rating after 13 to 14 days, scale 0 to 100 (0 no effect, 100 complete control)
# In short: as §2
# sedge, umbrella = experiment: Test D flooded paddy test; type: in vivo, Cyperus difformis; settings: 250 g ai/ha, applied to paddy water, visual rating after 13 to 14 days, scale 0 to 100 (0 no effect, 100 complete control)
# In short: as §2
# [24] = 125 g ai/ha, 0 to 100 scale, 0 no effect, 100 complete control
# [25] = 500 g ai/ha, 0 to 100 scale (0 no effect, 100 complete control)
structure (smiles),measurement,setting,value
"CC(C)c1ncn(-c2cccc(C(=O)N3CC(C(F)(F)F)Oc4c(Cl)cccc43)c2)n1 (single isomer, unassigned) [Compound 289]",Barnyardgrass plant response rating,barnyardgrass [1]; 500 g ai/ha,100
same,Barnyardgrass plant response rating,"barnyardgrass [1]; Test C, 125 g ai/ha",60
same,Blackgrass plant response rating,blackgrass [2]; 500 g ai/ha,90
same,Blackgrass plant response rating,"blackgrass [2]; Test C, 125 g ai/ha",80
same,Corn plant response rating,corn [3]; 500 g ai/ha,20
same,Corn plant response rating,"corn [3]; Test C, 125 g ai/ha",10
same,"Foxtail, Green plant response rating",green foxtail [4]; 500 g ai/ha,100
same,"Foxtail, Green plant response rating","green foxtail [4]; Test C, 125 g ai/ha",100
same,Kochia plant response rating,kochia [5]; 500 g ai/ha,100
same,Kochia plant response rating,"kochia [5]; Test C, 125 g ai/ha",70
same,"Oat, Wild plant response rating","oat, wild [6]; 500 g ai/ha",90
same,"Oat, Wild plant response rating","oat, wild [6]; Test C, 125 g ai/ha",80
same,"Pigweed, Palmer plant response rating","pigweed, palmer [7]; 500 g ai/ha",100
same,"Pigweed, Palmer plant response rating","pigweed, palmer [7]; Test C, 125 g ai/ha",100
same,Ragweed plant response rating,ragweed [8]; 500 g ai/ha,70
same,Ragweed plant response rating,"ragweed [8]; Test C, 125 g ai/ha",50
same,"Ryegrass, Italian plant response rating","ryegrass, Italian [9]; 500 g ai/ha",100
same,"Ryegrass, Italian plant response rating","ryegrass, Italian [9]; Test C, 125 g ai/ha",100
same,Soybean plant response rating,soybean [10]; 500 g ai/ha,90
same,Soybean plant response rating,"soybean [10]; Test C, 125 g ai/ha",90
same,Wheat plant response rating,wheat [11]; 500 g ai/ha,50
same,Wheat plant response rating,"wheat [11]; Test C, 125 g ai/ha",30
same,"Plant response rating, Barnyardgrass",barnyardgrass [12]; [24],30
same,"Plant response rating, Barnyardgrass",barnyardgrass [12]; [25],60
same,"Plant response rating, Blackgrass",blackgrass [13]; [24],30
same,"Plant response rating, Blackgrass",blackgrass [13]; [25],100
same,"Plant response rating, Corn",corn [14]; [24],20
same,"Plant response rating, Corn",corn [14]; [25],30
same,"Plant response rating, Foxtail, Green",green foxtail [15]; [24],20
same,"Plant response rating, Foxtail, Green",green foxtail [15]; [25],90
same,"Plant response rating, Kochia",kochia [16]; [24],80
same,"Plant response rating, Kochia",kochia [16]; [25],90
same,"Plant response rating, Oat, Wild","oat, wild [17]; [24]",30
same,"Plant response rating, Oat, Wild","oat, wild [17]; [25]",60
same,"Plant response rating, Pigweed, Palmer","pigweed, palmer [18]; [24]",90
same,"Plant response rating, Pigweed, Palmer","pigweed, palmer [18]; [25]",100
same,"Plant response rating, Ragweed",ragweed [19]; [24],60
same,"Plant response rating, Ragweed",ragweed [19]; [25],70
same,"Plant response rating, Ryegrass, Italian","ryegrass, Italian [20]; [24]",40
same,"Plant response rating, Ryegrass, Italian","ryegrass, Italian [20]; [25]",90
same,"Plant response rating, Soybean",soybean [21]; [24],100
same,"Plant response rating, Soybean",soybean [21]; [25],90
same,"Plant response rating, Wheat",wheat [22]; [24],20
same,"Plant response rating, Wheat",wheat [22]; [25],40
same,"Plant response rating, Galium",galium; [24],100
same,"Plant response rating, Galium",galium; [25],100
same,"Plant response rating, Horseweed",horseweed; [24],0
same,"Plant response rating, Horseweed",horseweed; [25],40
same,"Plant response rating, Barnyardgrass (Flood)",barnyardgrass [23],50
same,"Plant response rating, Ducksalad (Flood)",ducksalad,65
same,"Plant response rating, Rice (Flood)",rice,10
same,"Plant response rating, Sedge, Umbrella (Flood)","sedge, umbrella",100
